Experimental data reported in US20250084095A1, “Aminopyrimidine Derivatives as Cyclin-Dependent Kinase Inhibitors” (Accutar Biotechnology Inc., priority 2023, published 2025).
pIC50: −log10 of the molar value.

System: Phospho-Rb (Ser807/811) in SW1573-CDK4 KO cells
Assay: Phospho-Rb expression inhibition in SW1573-CDK4 KO cells quantified by in cell Western
Format: cell-based
Details: Homo sapiens, 24 hours, read-out: SW1573 CDK4 KO pRb IC50
Protocol: Parental SW1573 cells were obtained from the American Type Culture Collection (ATCC). CDK4 or CDK6 gene in […] cells was knocked out using the CRISPR-Cas9 technology. First, gRNA complex of CDK4 or CDK6 was prepared with Alt-R CRISPR-Cas9 tracrRNA and crRNA CDK4 (5′-[…]-3′ (SEQ ID NO: 4)) or CDK6 (5′-[…]-3′ (SEQ ID NO. 5)) (IDT-Integrated DNA Technologies), and then ribonucleoprotein (RNP) complex of CDK4 or CDK6 was prepared with respective gRNA complex and Alt-R S.p. Cas9 Nuclease V3 (IDT-Integrated DNA Technologies). Next, 5×10^4/10 μL SWJ1573 cells were electroporated with the CDK4 or CDK6 RNP complex and Alt-R Cas9 Electroporation Enhancer using Neon Transfection System (Thermo Fisher). Cells were then plated in a 96-well plate to select single clones for validation of CDK4 or CDK6 knockout by western blot analysis.
MCF7 cells were obtained from American Type Culture Collection (ATCC, HTB-22). SW1573-CDK6 KO and SW1573-CDK4 KO cells were generated by the CRISPR-Cas9 technology. All cells were plated in 96-well plates (VWR #10062-900, or Corning #3904) in 90 uL culture medium at a density of 20,000 cells/well in the respective growth medium containing 10% FBS and 1% Penicillin Streptomycin, and then incubated at 37° C. overnight. The following day, the test compound was administered to the cells by using 1000× compound stock solution prepared in DMSO at various concentrations. 1000× compound stock solution was first diluted in culturing medium to 10×, then 10 uL compound medium was added to each well in the cell plates. After administration of the compound, the cells were then incubated at 37° C. for 24 hours. Upon completion, the cells were washed with PBS briefly. 150 uL/well of 4% formaldehyde was added and the plates were incubated at room temperature for 20 mins. The cells were washed with PBS briefly, and permeabilized with 150 uL/well of ice cold 100% methanol for 10 mins. The cells were washed with PBS briefly and blocked with 100 uL/well LI-COR blocking buffer for 1 hr at room temperature with gentle shaking. The cells were incubated overnight at 4° C. with 50 uL primary antibody rabbit anti-Phospho-Rb (Ser807/811) (1: 500, Cell Signaling, #8516) and anti-Rb (1:200, Santa Cruz, sc-73598) diluted in Intercept Blocking Buffer (LI-COR, #927-60001) containing 0.1% Tween 20. The next day, the cells were washed with 200 uL PBS containing 0.1% Tween 20, 5×5 mins at room temperature with gentle shaking, and incubated with 50 uL secondary antibody, IRDye® 800CW Goat anti-Rabbit IgG (1:1000, LI-COR, #926-32211) and IRDye®680RD Goat anti-Mouse IgG (1:1000, LI-COR, #926-68070), in LI-COR blocking buffer with 0.2% Tween 20 for 1 hr at room temperature with gentle shaking. The cells were washed with 200 uL PBS containing 0.1% Tween 20, 5×5 mins at room temperature with gentle shaking. The cells were washed with PBS for 5 mins. 100 uL fresh PBS was added to each well and the plates were imaged on a LI-COR Odyssey CLX plate reader.

SMILES	pIC50
Cc1c(C)n(C(C)C)c2cc(-c3nc(N[C@@H]4C[C@H]5CO[C@H](O5)[C@H]4O)ncc3Cl)ccc2c1=O [Compound 191, 7-(5-chloro-2-(((1S,3R,4S,5R)-4-hydroxy-6,8-dioxabicyclo[3.2.1]octan-3-yl)amino)pyrimidin-4-yl)-1-isopropyl-2,3-dimethylquinolin-4(1H)-one]	< 6.00
Cc1c(CN2CCC2)n(C(C)C)c2cc(-c3nc(N[C@@H]4C[C@H]5CO[C@H](O5)[C@H]4O)ncc3F)ccc2c1=O [Compound 196, 2-(azetidin-1-ylmethyl)-7-(5-fluoro-2-(((1S,3R,4S,5R)-4-hydroxy-6,8-dioxabicyclo[3.2.1]octan-3-yl)amino)pyrimidin-4-yl)-1-isopropyl-3-methylquinolin-4(1H)-one]	< 6.00
Cc1c(CN(C)C)n(C(C)C)c2cc(-c3nc(N[C@@H]4C[C@H]5CO[C@H](O5)[C@H]4O)ncc3F)ccc2c1=O [Compound 195, 2-((dimethylamino)methyl)-7-(5-fluoro-2-(((1S,3R,4S,5R)-4-hydroxy-6,8-dioxabicyclo [3.2.1]octan-3-yl)amino)pyrimidin-4-yl)-1-isopropyl-3-methylquinolin-4(1H)-one]	< 6.00
Cc1c(CN2CC(F)C2)n(C(C)C)c2cc(-c3nc(N[C@@H]4C[C@H]5CO[C@H](O5)[C@H]4O)ncc3F)ccc2c1=O [Compound 197, 7-(5-fluoro-2-(((1S,3R,4S,5R)-4-hydroxy-6,8-dioxabicyclo[3.2.1]octan-3-yl)amino)pyrimidin-4-yl)-2-((3-fluoroazetidin-1-yl)methyl)-1-isopropyl-3-methylquinolin-4(1H)-one]	< 6.00
Cc1c(CN2[C@@H](C)COC[C@@H]2C)n(C(C)C)c2cc(-c3nc(N[C@@H]4C[C@H]5CO[C@H](O5)[C@H]4O)ncc3F)ccc2c1=O [Compound 199, 2-(((3S,5S)-3,5-dimethylmorpholino)methyl)-7-(5-fluoro-2-(((1S,3R,4S,5R)-4-hydroxy-6,8-dioxabicyclo[3.2.1]octan-3-yl)amino)pyrimidin-4-yl)-1-isopropyl-3-methylquinolin-4(1H)-one]	6.00 to 6.82

More lines, now with the values ahead:

pIC50	SMILES
6.00 to 6.82	Cc1c(CN2CC[C@H](F)C2)n(C(C)C)c2cc(-c3nc(N[C@@H]4C[C@H]5CO[C@H](O5)[C@H]4O)ncc3F)ccc2c1=O [Compound 293, 7-(5-fluoro-2-(((1S,3R,4S,5R)-4-hydroxy-6,8-dioxabicyclo[3.2.1]octan-3-yl)amino)pyrimidin-4-yl)-2-(((S)-3-fluoropyrrolidin-1-yl)methyl)-1-isopropyl-3-methylquinolin-4(1H)-one]
< 6.00	CC(C)n1c(CN2[C@@H](C)COC[C@@H]2C)c(C(F)F)c(=O)c2ccc(-c3nc(N[C@@H]4C[C@H]5CO[C@H](O5)[C@H]4O)ncc3Cl)cc21 [Compound 204, 7-(5-chloro-2-(((1S,3R,4S,5R)-4-hydroxy-6,8-dioxabicyclo[3.2.1]octan-3-yl)amino)pyrimidin-4-yl)-3-(difluoromethyl)-2-(((3S,5S)-3,5-dimethylmorpholino)methyl)-1-isopropylquinolin-4(1H)-one]
< 6.00	Cc1c(-c2nc(N[C@@H]3C[C@H]4CO[C@H](O4)[C@H]3O)ncc2Cl)sc2c(Cl)c(C(C)(C)O)cnc12 [Compound 275, (1S,3R,4S,5R)-3-((5-chloro-4-(7-chloro-6-(2-hydroxypropan-2-yl)-3-methylthieno[3,2-b]pyridin-2-yl)pyrimidin-2-yl)amino)-6,8-dioxabicyclo[3.2.1]octan-4-ol]
< 6.00	CC(C)(O)c1cnc2c(F)cc(-c3nc(N[C@@H]4C[C@H]5CO[C@H](O5)[C@H]4O)ncc3F)cc2c1Cl [Compound 255, (1S,3R,4S,5R)-3-((4-(4-chloro-8-fluoro-3-(2-hydroxypropan-2-yl)quinolin-6-yl)-5-fluoropyrimidin-2-yl)amino)-6,8-dioxabicyclo[3.2.1]octan-4-ol]
< 6.00	COC(=O)N1CC[C@@H](c2nc3c(F)cc(-c4nc(N[C@@H]5C[C@H]6CO[C@H](O6)[C@H]5O)ncc4F)cc3n2C(C)C)C1 [Compound 265, methyl (R)-3-(4-fluoro-6-(5-fluoro-2-(((1S,3R,4S,5R)-4-hydroxy-6,8-dioxabicyclo[3.2.1]octan-3-yl)amino)pyrimidin-4-yl)-1-isopropyl-1H-benzo[d]imidazol-2-yl)pyrrolidine-1-carboxylate]
6.00 to 6.82	CCn1cc(C(C)C)c2sc(-c3nc(N[C@@H]4C[C@H]5CO[C@H](O5)[C@H]4O)ncc3Cl)c(C)c2c1=O [Compound 230, 5-ethyl-2-(5-chloro-2-(((1S,3R,4S,5R)-4-hydroxy-6,8-dioxabicyclo[3.2.1]octan-3-yl)amino)pyrimidin-4-yl)-7-isopropyl-3-methylthieno[3,2-c]pyridin-4(5H)-one]
< 6.00	Cc1c(C(C)(C)O)cnc2c(F)cc(-c3nc(N[C@@H]4C[C@H]5CO[C@H](O5)[C@H]4O)ncc3F)cc12 [Compound 256, (1S,3R,4S,5R)-3-((5-fluoro-4-(8-fluoro-3-(2-hydroxypropan-2-yl)-4-methylquinolin-6-yl)pyrimidin-2-yl)amino)-6,8-dioxabicyclo[3.2.1]octan-4-ol]
